Numbered stars: 1 amine (or outer) side, 2 acyl side, 3 side chain; on linkers, the order of the positions; unused ones are H or OH. Square brackets hold non-standard residues; d marks the D form. Peptide text beside a SMILES is read from it. * marks the point of attachment. X1 = CC(N[*:1])C(=O)C(F)(F)C(=O)[*:2]; Boc = CC(C)(C)OC(=O)*
Columns and labels:
[1] = test system: γ-secretase cleavage of APP in CHO-APP695 cells; assay: 35S-methionine labeling, immunoprecipitation and SDS-PAGE of secreted Aβ, APP holoprotein and APP C-terminal fragments; assay type: cell-based, Chinese hamster; details: 5 mM LiCl or 100 μM DFK-167 for 24 hours
Procedure: To visualize the APP fragments, CHO695 cells plated on 6-well dishes were methionine-deprived for 30 minutes by incubation in methionine-free DMEM (Life Technologies, Inc., Grand Island, N.Y.) before adding 500 μCi ^35S-methionine (Perkin Elmer Life Sciences, Inc., Boston Mass.) per ml of DMEM with 5% dialyzed FBS (Invitrogen) and mg/ml L-proline for 2.5 hours. Medium was collected and cells (2 wells/sample) were rinsed twice with PBS (phosphate buffered saline), then scraped into RIPA buffer (a standard immunoprecipitation buffer, see, Harlow and Lane (eds.), In Antibodies: a laboratory manual, Cold Spring Harbor Laboratory Press, NY (1988)). Lysates were sonicated and centrifuged at 100,000×g for 20 minutes. Using protein A/G agarose beads (Santa Cruz Biotechnologies, Santa Cruz, Calif.), media was immunoprecipitated with the antibody BAN-50 (Suzuki et al., 1994) that recognizes Aβ amino acids 1-10, and cell lysates were immunoprecipitated with antibody 2493 (Lee et al., J. Biol. Chem. 278:[…] (2003)), which is a rabbit polyclonal antibody that recognizes the C-terminus of APP. Proteins were resolved by electrophoresis on 10/16% step gradient Tris-tricine polyacrylamide gels. Gels were fixed in 50% methanol+5% glycerol, dried, and exposed to a Phosphorlmager screen. […]

[2] = test system: Aβ40 and Aβ42 production in CHO-APP695 cells; assay: Secreted Aβ40 and Aβ42 from CHO-APP695 cells, sandwich ELISA normalized to intracellular full-length APP; assay type: cell-based, Chinese hamster
Procedure: To investigate the role of GSK-3 in the production of peptides Aβ40 and Aβ42, Chinese hamster ovary (CHO) cells stably expressing APP (CHO-APP695) were treated with lithium chloride (LiCl), which is a direct inhibitor of GSK-3α and β (Phiel et al., 2001). CHO695 cells (available commercially, e.g., American Type Culture Collection (ATCC), Manassas, Va.) were maintained in culture in MEMα+5% fetal bovine serum (FBS) (e.g., BioWhittaker, Walkersville, Md.) with added penicillin/streptomycin and glutamine. Stocks of lithium chloride were prepared in sterile water. To quantify the Aβ40 and Aβ42 secretion following treatment with LiCl, the CHO-APP695 cells were plated in 6-well dishes at a density of 5×10^5 cells per well. LiCl was added to the cells in fresh medium, and media and cells were collected 24 hours later. Aβ determinations from the media were made by sandwich ELISA in femtomoles using the method of Suzuki et al., Science 264:1336-1340 (1994).
For comparison purposes, the results were normalized to levels of intracellular full-length APP. APP levels were quantified by SDS-PAGE followed by western immunoblotting with the amino-terminal APP antibody Karen (Turner et al., J. Biol. Chem. 271:8966-8970 (1996)), and visualized using ^125I-labelled secondary antibodies by Phosphorlmager analysis and ImageQuant software (Amersham Biosciences Corp, Piscataway, N.J.).
Stocks of kenpaullone (Calbiochem, La Jolla, Calif.) were prepared in DMSO. Secreted labeled Aβ secreted from CHO-APP695 cells was obtained as described in the preceding examples. Drugs were added to fresh medium, and medium and cells were collected, as described above, 24 hours later. Immunoprecipitates from the medium were SDS-PAGE separated and Phosphorlmager visualized.
Stocks of roscovitine (Calbiochem) were prepared in DMSO.

[3] = test system: GSK-3; assay: β-catenin protein accumulation by western blot in CHO-APP695 cells; assay type: cell-based, Chinese hamster; details: kenpaullone 0.5, 2.0, 5.0 μM; LiCl 0.5, 2.0, 5.0 mM; FIG. 2b
Procedure: This was confirmed by western blot, in CHO-APP695 cells treated with kenpaullone (tested at concentrations of 0.5 μM, 2.0 μM and 5.0 μM, respectively) or lithium (0.5 mM, 2.0 mM and 5.0 mM LiCl) as shown in FIG. 2b. Roscovitine was added as a control (tested at concentrations of 0.5 μM, 2.0 μM and 5.0 μM, respectively) in FIG. 2b, as had been in the study summarized in FIG. 2a. A western blot for actin is was used as a loading control (see FIG. 2b).

[4] = test system: GSK-3; assay: β-catenin/Tcf-dependent luciferase reporter (OT-Luc / Lef-OT) in CHO-APP695 cells; assay type: cell-based, Chinese hamster; design: dose or concentration left out as unconfirmed; details: FIG. 2c
Procedure: CHO-APP695 cells were transfected with a β-catenin-responsive reporter construct, OT-luciferase (OT-Luc) (shown in FIG. 2c as light bars), or a mutated reporter, OF-luciferase (OF-Luc) (shown in FIG. 2c as dark bars). OT-luciferase was provided by K. Kinzler and B Vogelstein.
After transfection, cells were treated with lithium (at concentrations of 0.5 mM, 2.0 mM and 5 mM LiCl, respectively), kenpaullone (at concentrations of […]) or roscovitine (at concentrations of […]) for 24 hours. Cells were harvested and luciferase assays performed.

[5] = test system: cyclin-dependent kinases (cdks); details: in vitro; cited from earlier work
[6] = test system: Aβ40 and Aβ42 production in CHO-APP695 cells; assay: Aβ levels secreted from siRNA transfected CHO-APP695 cells; assay type: cell-based, Chinese hamster; details: siRNA 25 nM, 48 hours
Procedure: (§1) The dsRNA was produced using conditions described in Elbashir et al., 2001, supra. The siRNA was transfected into the CHO-APP695 cells plated in 6-well dishes using GenePORTER transfection reagent. The siRNA (25 nM) was co-transfected with 2 μg plasmid DNA. The siRNA against pGL3-luciferase (Pp-Luc) represents control transfection. […] Following transfection, the cells were cultured and harvested 48 hours later. GSK-3α and GSK-3β protein levels were examined using an antibody that recognized both GSK-3 isoforms (Calbiochem), and western blotted as above.
As graphically presented in FIG. 3b, Aβ levels (Aβ40 shown in light bars; […] shown in dark bars) secreted from siRNA and transfected cells in a representative experiment, were assessed as in FIG. 1. Error bars represent standard deviation. The experiment was repeated six times with similar results. As a result, the selective reduction of GSK-3 a protein decreased Aβ40 and Aβ42 levels by 45% and 43%, respectively (FIG. 3b). Asterisks indicate a significant difference from control, as determined by one-way ANOVA (p<0.05).

[7] = test system: GSK-3α; assay: siRNA knock-down, GSK-3α protein by western blot in CHO-APP695 cells; assay type: cell-based, Chinese hamster
Procedure: (§2) CHO-APP695 cells were transfected with short interfering RNAs (siRNAs) directed against GSK-3α and GSK-3β as follows. RNA oligonucleotides were synthesized by Dharmacon, Inc. (Lafayette, Colo.) Sequences used were:
as §1

[8] = test system: GSK-3β; assay: siRNA knock-down, GSK-3β protein by western blot in CHO-APP695 cells; assay type: cell-based, Chinese hamster; details: siRNA 25 nM, harvested 48 hours after transfection
Procedure: as §2, §1

Compound: CCC(C)C(NC(=O)C(NC(=O)OC(C)(C)C)C(C)C)C(=O)NC(C)C(=O)C(F)(F)C(=O)NC(C(=O)NC(C(=O)OC)C(C)CC)C(C)C (stereo not drawn) [DFK-167] (Boc-VI[X1]VI-OMe; configuration not given here)
- steady-state levels of secreted Aβ peptides ([1]; FIG. 1b): dramatically reduce
- accumulation of APP C-terminal fragments (CTFs) ([1]; FIG. 1c): accumulation of APP CTFs

Compound: [Cl-].[Na+] [NaCl, sodium chloride]
- effect on APP processing ([2]; 24 hours, FIG. 1a): no effect

Compound: O=C1Cc2c([nH]c3ccc(Br)cc23)-c2ccccc2N1 [kenpaullone]
- accumulation of β-catenin protein (GSK-3 inhibition in cells) [3]: accumulation of β-catenin protein
- reduction of Aβ40 and Aβ42 secretion ([2]; 2.0 μM, 24 hours): 50%
- reduction of Aβ40 and Aβ42 secretion ([2]; 5.0 μM, 24 hours): greater than 90%
- activation of β-catenin/Tcf-dependent reporter Lef-OT [4]: activation
- concentration needed for cdk inhibition relative to GSK-3 inhibition [5]: at least 20 fold

Compound: CC[C@H](CO)Nc1nc(NCc2ccccc2)c2ncn(C(C)C)c2n1 [roscovitine]
- effect on Aβ40 and Aβ42 ([2]; 2.0 μM and 5.0 μM, FIG. 2a): no effect

Compound: GSK-3α siRNA: dsRNA of SEQ ID NO:5 (sense) and SEQ ID NO:6 (antisense) directed against GSK-3α (sense UUCUACUCCAGUGGUGAGA; antisense UCUCACCACUGGAGUAGAA; listed as RNA, chemistry not fully specified)
- decrease of secreted Aβ40 level ([6]; FIG. 3b): 45%
- decrease of secreted Aβ42 level ([6]; FIG. 3b): 43%
- GSK-3α protein level ([7]; siRNA 25 nM, harvested 48 hours after transfection): selectively reduces

Compound: GSK-3β directed siRNA: dsRNA of SEQ ID NO:3 (sense) and SEQ ID NO:4 (antisense) directed against GSK-3β (sense AUCUUUGGAGCCACUGAUU; antisense AAUCAGUGGCUCCAAAGAU; listed as RNA, chemistry not fully specified)
- GSK-3β protein level [8]: selectively reduces
- levels of secreted Aβ40 and Aβ42 [6]: modest increase

Compound: control siRNA: siRNA against pGL3-luciferase (Pp-Luc), SEQ ID NO:1 and 2, control transfection (chain 1 CUUACGCUGAGUACUUCGA; chain 2 UCGAAGUACUCAGCGUAAG; listed as RNA, chemistry not fully specified)
- GSK-3 expression ([7]; control siRNA, both GSK-3 isoforms, FIG. 3a): no effect
